# Laboratory results published in patent EP4792811A1, “S1PR4 REGULATOR COMPOUND FOR MUSCLE DISEASE TREATMENT AND APPLICATION THEREOF” (Shengyuan Zetong (Shanghai) Pharmaceutical Co., Ltd, priority 2023, dated 2025).
# Residue numbers refer to the chain shown, from its start. Entries after “also recorded” stand apart in the source; their conditions may differ.
# What was measured:
# [1] = molecular target: T1, hS1P1 (Homo sapiens, UniProt P21453); test: Tango β-arrestin recruitment assay, Tango-hS1P1-CHO; assay type: cell-based; settings: final concentration 45 µM, 9 serial dilutions at 5-fold intervals; 20 h drug treatment; luciferase readout
# T1 construct: expressed in transfected cells; host or cells: CHO-K1
# T1 sequence (P21453 whole entry): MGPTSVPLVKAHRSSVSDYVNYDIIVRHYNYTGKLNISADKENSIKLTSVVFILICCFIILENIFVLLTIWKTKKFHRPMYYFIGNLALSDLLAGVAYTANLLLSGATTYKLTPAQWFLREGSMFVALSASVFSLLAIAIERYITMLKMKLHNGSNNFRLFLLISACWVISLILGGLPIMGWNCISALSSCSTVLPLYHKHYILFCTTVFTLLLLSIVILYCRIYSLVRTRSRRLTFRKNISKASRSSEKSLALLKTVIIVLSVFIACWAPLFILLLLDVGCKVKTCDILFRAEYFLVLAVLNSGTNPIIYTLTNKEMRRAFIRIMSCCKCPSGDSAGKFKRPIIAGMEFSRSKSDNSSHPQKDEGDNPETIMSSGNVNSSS
# Source text: (§1) The Tango assay detects ligand-dependent GPCR activity through the interaction between β-arrestin and GPCRs. […] The NTEV fragment and the tetracycline transactivator (tTA), an artificial transcription factor, are fused at the C-terminus of the GPCR, while the CTEV fragment is fused to human β-arrestin 2. To enhance the stability of the interaction between GPCR and β-arrestin, a short sequence from the C-terminus of the human arginine vasopressin receptor 2 (V2 tail) is inserted between the GPCR and NTEV. The V2 tail contains multiple GRK phosphorylation sites, which strengthen β-arrestin binding upon phosphorylation. The CTEV fragment carries the stabile point mutation S219P and is truncated at residue 221 to remove the autoinhibitory C-terminal tail. Meanwhile, β-arrestin 2 is truncated to lack the entire C-terminal tail (residues 383-410 deleted). This truncation confers robust stimulus-dependent receptor desensitization, thereby improving detection sensitivity compared with wild-type β-arrestin 2. The UAS reporter construct consists of upstream activating sequence (UAS) elements, a minimal CMV promoter, and a tTA-dependent luciferase reporter gene. Therefore, constructing Tango cells requires the co-transfection of the above three plasmids into host cells. Upon GPCR activation and β-arrestin recruitment, the TEV enzyme at the β-arrestin terminus cleaves tTA from the GPCR C-terminus. The released tTA initiates tTA-dependent luciferase transcription, and compound activity is ultimately determined by measuring luminescence intensity.
# (§2) • 1) Tango cell line from was digested from the culture dish respectively. After cell counting, the cells were plated at a density of 10,000 cells per well with […] into a white opaque 96-well plate (add 60 µL D'Hanks to the surrounding wells), and incubated overnight (20 h) in a 5% CO2 incubator at 37°C. The cell density will reach approximately 90% the next day. • 2) After 20 h, 30 µL of serially diluted compound solution was added to each well. The control group was supplemented with 30 µL F12K complete medium. Each group had three replicate wells. • 3) Samples were collected after 20 h of drug treatment.
# (§3) (All compounds were tested at a final concentration of 45 µM, with 9 serial dilutions at 5-fold intervals. 1 µM BAF-312 was used as the positive control for S1PR1, and 25 µM BAF-312 was used as the positive control for S1PR4.)
# (§4) ^a β-arrestin recruitment activity based on Tango-S1PR1-CHO-K1 and Tango-S1PR4-CHO-K1 cells, expressed as mean EC50 values ± SD. ^b FLIPR assays were performed using S1PR2-CHO and S1PR5-CHO cell lines, expressed as mean EC50 values ± SD. ^c β-arrestin recruitment activity based on PathHunter CHO-K1-S1PR3 cells, expressed as mean EC50 values ± SD. Data are the mean of at least two independent determinations, reported as mean ± SD (standard deviation).
# [2] = molecular target: T2, S1PR4 (Homo sapiens, UniProt O95977); test: S1PR4 internalization function test in S1PR4-293T cells; assay type: cell-based; settings: 1 µM, 37 °C, 1.5 hours; detected immediately, or at 5 hours or 20 hours after treatment
# T2 construct: expressed in transfected cells; host or cells: 293T
# T2 sequence (O95977 1-384): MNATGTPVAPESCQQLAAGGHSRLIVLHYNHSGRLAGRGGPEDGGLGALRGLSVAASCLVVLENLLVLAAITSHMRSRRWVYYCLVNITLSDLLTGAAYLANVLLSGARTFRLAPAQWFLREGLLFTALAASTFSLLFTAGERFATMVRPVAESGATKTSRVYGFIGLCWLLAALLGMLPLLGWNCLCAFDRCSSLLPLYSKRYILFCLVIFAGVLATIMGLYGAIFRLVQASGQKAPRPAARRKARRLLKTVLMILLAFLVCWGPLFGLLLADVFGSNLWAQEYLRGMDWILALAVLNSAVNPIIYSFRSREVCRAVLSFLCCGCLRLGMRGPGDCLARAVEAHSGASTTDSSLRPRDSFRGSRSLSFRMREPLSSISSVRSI
# Method: Therefore, the recovery degree of S1PR4 after internalization caused by Compound 30 was evaluated, and the recovery effect following receptor internalization caused by Compound 30 was assessed in cells with high S1PR4 expression.
# [3] = tested on: Duchenne muscular dystrophy model mice; test: In vivo pharmacodynamic test in Duchenne muscular dystrophy model mice (Compound 30); settings: 1 mg/kg intragastric once daily
# Method: Experimental Animals: A total of 35 Duchenne muscular dystrophy model mice were divided into 6 groups as shown below.
# Intragastric administration was initiated from Day 0. Body weight was measured daily during the experiment to adjust the drug dosage. Grip strength tests were performed every 2 days to observe changes in the mice's grip strength until the experiment concluded on Day 21. Changes in the limb grip strength, serum creatine kinase content, and muscle fibrosis/inflammation in the mice were detected as indicators for evaluating drug efficacy.
# (§5) The mouse was placed horizontally on the grip test board. The mouse's tail was held and pulled gently in the opposite direction without using excessive force. The tail was gradually pulled until the mouse released the grip force sensor. The maximum value recorded by the grip force sensor is the grip strength. The test was repeated for 3 times and the average value was taken.
# (§6) After the completion of administration, blood was collected via the orbital sinus, allowed to stand for 30 minutes, centrifuged at 3000 rpm at 4°C for 15 minutes, and serum was extracted, stored frozen at -20°C, and detected in accordance with the kit instructions.
# (§7) After the experiment, the tibialis anterior, extensor digitorum longus, and diaphragm of the mice were harvested, fixed, sectioned, and subjected to HE staining and Sirius Red staining to observe the degree of muscle fibrosis. The slice was subjected to immunofluorescence staining with F4/80 to observe the level of muscle inflammation.
# [4] = molecular target: T3, hS1P4-R-79C (Homo sapiens, UniProt O95977, R79C); test: Tango β-arrestin recruitment assay, Tango-hS1P4-R-79C-CHO; assay type: cell-based; settings: final concentration 45 µM, 9 serial dilutions at 5-fold intervals; 20 h drug treatment; luciferase readout
# T3 construct: expressed in transfected cells; host or cells: CHO
# T3 sequence (O95977 1-384 R79C): T2 sequence (O95977 1-384) with R79C
# Source text: as §1, §2, §3
# [5] = tested on: S1PR4-R82C/NDUFA10-R217W double-mutant mice; test: In vivo efficacy in S1PR4-R82C/NDUFA10-R217W double-mutant muscular dystrophy mice; settings: 1 mg/kg intragastric once daily
# Method: Experimental Animals: A total of 34 S1PR4-R82C/NDUFA10-R217W mice were divided into 6 groups as shown below.
# Intragastric administration was initiated on Day 0, and body weight was measured daily during the experiment to adjust the drug dosage. Grip strength was measured at the beginning and end of the experiment to observe motor changes in mice. Changes in the limb grip strength, serum creatine kinase content, and muscle fibrosis/inflammation in mice were detected as indicators for evaluating drug efficacy.
# as §5, §6, §7
# [6] = molecular target: T4, hS1P4 (Homo sapiens, UniProt O95977); test: Tango β-arrestin recruitment assay, Tango-hS1P4-CHO; assay type: cell-based; settings: final concentration 45 µM, 9 serial dilutions at 5-fold intervals; 20 h drug treatment; luciferase readout
# T4 construct: expressed in transfected cells; host or cells: CHO-K1
# T4 sequence (O95977 1-384): T2 sequence (O95977 1-384)
# Source text: as §1, §2, §3, §4
# [7] = tested on: LPS-induced sepsis model; test: LPS-induced sepsis myopathy (skeletal muscle atrophy) model; assay type: in vivo, mice; settings: 14 days of LPS treatment
# Source text: Animal models of sepsis can be established by injecting exogenous toxins into animals. In this study, a sepsis model was established via intraperitoneal injection of lipopolysaccharide to observe the effects of compounds on the occurrence and development of acquired weakness. This is a widely used method for modeling sepsis.
# A skeletal muscle atrophy model induced by lipopolysaccharide can simulate clinical muscle atrophy caused by sepsis.
# Mice were given a single intraperitoneal injection of LPS (1 mg/kg), followed by 14 consecutive days of intraperitoneal injection of either vehicle (1% DMSO dissolved in physiological saline) or Compound 30. Body weight was measured daily. After 14 days of LPS treatment, the mice were anesthetized, and the gastrocnemius and tibialis anterior muscles were harvested.
# [8] = tested on: Duchenne muscular dystrophy model mice; test: In vivo efficacy in Duchenne muscular dystrophy mdx mice (Compound 67); settings: for rotarod time: Day 42; for rotarod time / grip strength: compared with the model group; for grip strength: after 42 days of treatment
# Method: Experimental animals: A total of 18 Duchenne muscular dystrophy model mice were divided into 3 groups with 6 mice in each group.
# Intragastric administration was initiated on Day 0. Body weight was measured daily during the period to adjust the drug dosage. Grip strength and rotarod tests were performed on Day 20 and Day 42. Changes in the limb grip strength, exercise duration, and muscle fibrosis/inflammation in mice were detected as indicators for evaluating drug efficacy.
# as §5
# The rotarod test was conducted on Day 0, Day 20, and Day 42 respectively. The test was performed at an accelerating speed (0-16 rpm), reaching the maximum speed after 300 seconds, with a maximum test duration of 600 seconds. The time until the animal fell off was recorded^7.
# After the experiment, the tibialis anterior, extensor digitorum longus, and diaphragm of the mice were harvested, fixed, sectioned, and subjected to HE staining and Sirius Red staining to observe the degree of muscle fibrosis.
# [9] = 3 mg/kg intragastric once daily
# [10] = 20 mg/kg intragastric once daily
smiles,measurement,setting,value
"CCc1cc(/C(C)=N/OCc2ccc(C3CCCCC3)c(C(F)(F)F)c2)ccc1CN1CC(C(=O)O)C1 [BAF312, reference compound]",EC50,[1],1.04 nM
same,S1PR4 internalization (expression of S1PR4 receptor on the cell surface),[2],cannot induce S1PR4 internalization
same,collagen deposition (collagen area ratio),[3],no difference
same,"macrophage content (F4/80 immunofluorescence, muscle inflammation)",[3],no improvement
same,number of centrally nucleated fibers (HE staining),[3],significantly reduced
same,serum creatine kinase level,[3]; after treatment,no such effect
same,body weight growth trend,[3]; compared with the model group,no difference
same,EC50,[4],157 nM
same,collagen deposition (collagen area ratio),[5]; after administration,significantly reduced collagen deposition
same,serum creatine kinase level,[5]; after treatment,significantly reduced
same,body weight gain trend,[5]; compared with the model group,no difference
"C/C(=N\OCc1ccc(C2CCCCC2)c(C(F)(F)F)c1)c1ccc(CNCCC(=O)O)cc1 [Compound 10, (E)-3-((4-((1-((4-cyclohexyl-3-(trifluoromethyl)benzyl)oxy)imino)ethyl)benzyl)amino)propanoic acid]",EC50,[6],262 ± 37.3 nM
same,EC50,[4],160 ± 4.9 nM
CCc1cc(/C(C)=N/OCc2ccc(C3CCCC3)c(C(F)(F)F)c2)ccc1CN1CC(C(=O)O)C1 [Compound 17],EC50,[1],2.21 ± 0.58 nM
same,EC50,[4],95.6 ± 42.1 nM
C/C(=N\OCc1ccc(C2CCCCC2)c(C(F)(F)F)c1)c1ccc(CN2CC(C(=O)O)C2)c(C)c1 [Compound 18],EC50,[1],2.95 ± 0.69 nM
same,EC50,[6],266 ± 62.8 nM
same,EC50,[4],63.1 ± 21.8 nM
C/C(=N\OCc1ccc(C2CCCCC2)c(C(F)(F)F)c1)c1ccc(CN2CC(C(=O)O)C2)c(C(F)(F)F)c1 [Compound 19],EC50,[1],8.63 ± 0.39 nM
same,EC50,[6],564 ± 184 nM
same,EC50,[4],121 ± 30.4 nM
"CCc1cc(/C(C)=N/OCc2ccc(-c3ccccc3)c(C)c2)ccc1CNCCCC(=O)O [Compound 32, (E)-4-((2-ethyl-4-(1-((2-methyl-[1,1'-biphenyl]-4-yl)methoxy)imino)ethyl)benzyl)aminobutyric acid]",EC50,[4],110 ± 6.85 nM
"CCc1cc(/C(C)=N/OCc2ccc(-c3cnc(F)cn3)c(C)c2)ccc1CN1CC[C@H](C(=O)O)C1 [Compound 67, (S, E)-1-(2-ethyl-4-(1-(((4-(5-fluoropyrazin-2-yl)-3-methylbenzyl)oxy)imino)ethyl)benzyl)pyrrolidine-3-carboxylic acid]",atrophy of the tibialis anterior muscle,[7]; high dose (Compound 30: 10mg/kg intraperitoneal once daily),significantly inhibited
same,atrophy of the tibialis anterior muscle,[7]; medium dose (Compound 30: 1mg/kg intraperitoneal once daily),significantly inhibited
same,S1PR4 internalization (expression of S1PR4 receptor on the cell surface),[2],sustained internalization capacity
same,collagen deposition (collagen area ratio),[8]; [9],significantly reduced collagen deposition
same,"macrophage levels (F4/80 macrophage marker, muscle inflammation)",[8]; [9],significantly reduced macrophage levels
same,number of centrally nucleated fibers (HE staining),[8]; [9],significantly reduced
same,serum creatine kinase level,[8]; [9],significantly reduced the creatine kinase level
same,rotarod time,[8]; [9],increased
same,grip strength,[8]; [9],marked increase; also recorded: significantly elevated
same,grip strength,"[8]; 3 mg/kg intragastric once daily, listed as compound 67",increased significantly
"CCCCCCCCCCCCC/C=C/[C@@H](O)[C@@H](N)COP(=O)(O)O [Compound S1P, sphingosine 1-phosphate, reference compound]",S1PR4 internalization (expression of S1PR4 receptor on the cell surface),[2],can induce S1PR4 internalization
"C[C@@H]1C[C@H]2[C@@H]3CCC4=CC(=O)C=C[C@]4(C)C3=CC[C@]2(C)[C@@]1(O)C(=O)CO [Vamorolone, reference compound]",collagen deposition (collagen area ratio),[8]; [10],significantly reduced collagen deposition
same,"macrophage levels (F4/80 macrophage marker, muscle inflammation)",[8]; [10],significantly reduced macrophage levels
same,number of centrally nucleated fibers (HE staining),[8]; [10],significantly reduced
same,serum creatine kinase level,[8]; [10],significantly reduced the creatine kinase level
same,rotarod time,[8]; [10],increased
same,grip strength,[8]; [10],increased significantly; also recorded: marked increase; also recorded: significantly elevated
